As a reminder, the Ki is the dissociation constant of the complex between target and ligand, obtained from inhibition or displacement.

In experiment [1] the target is T1, human serotonin 2C receptor (h-5-HT2C) (Homo sapiens (Human), UniProt P28335). Nature of the experiment: [3H] mesulergine binding assay to evaluate affinity for human 5-HT2C receptor. The following applies: Test Ex. 2, h-5-HT2C/CHO membrane preparation, read-out: 5-HT2C receptor binding inhibition constant Ki.
Description: Mesulergine Binding Assay to Evaluate Affinity for Human 5-HT2C Receptor
Preparation of the Cells and Membrane Preparations
In the experiment, human serotonin 2C receptor (h-5-HT2C) was expressed in CHO cells (h-5-HT2C/CHO). The cells were incubated with UltraCHO Lipuid (trademark) (manufactured by BioWhitakker) containing 1% FBS, 400 μg/mL Geneticin, 100 U/mL penicillin-100 μg/mL streptomycin (all manufactured by Sigma Aldrich) and 250 μg/mL Zeosin (manufactured by InvivoGen) in an incubator containing 5% CO2; detached and collected using 50 mmol/L Tris-HCl (pH=7.4); homogenized with a homogenizer manufactured by Teflon (trademark); and then centrifuged (48,000×g, 25 min, 4° C.). […]
A solution of 200 μL in total was prepared by mixing 50 μL of [^3H] mesulergine (manufactured by GE Healthcare) diluted with 50 mmol/L Tris-HCl (pH=7.4) (final concentration: about 2 nmol/L), 149 μL of the h-5-HT2C/CHO membrane preparation (protein amount: 20 μg/well), and 1 μL of the test drug dissolved in dimethylsulfoxide. […] The glass fiber filter was washed twice with 250 μL of 50 mmol/L Tris-HCl (pH=7.4), placed in a plastic vial containing 4 mL of liquid scintillator (ACS-II, manufactured by Amersham) or Ecoscint A (manufactured by National Diagnostics), and the remaining radioactivity on the filter paper was assayed with a liquid scintillation counter. […]
For experiment [2], the target named is human serotonin transporter (h-SERT) (Homo sapiens (Human), UniProt P31645). Nature of the experiment: [3H] citalopram binding assay to evaluate human serotonin reuptake inhibitory action (h-SERT binding assay). The following applies: h-SERT binding inhibition constant Ki, Test Ex. 1.
Description: Citalopram Binding Assay to Evaluate Human Serotonin Reuptake Inhibitory Action
In the experiment, human serotonin transporter (h-SERT) was expressed in CHO cells (h-SERT/CHO). The cells were incubated with F12 containing 10% FCS, 500 μg/mL Geneticin and 100 U/mL penicillin-100 μg/mL streptmycin (all manufactured by Sigma Aldrich) in an incubator containing 5% CO2; detached and collected using a SERT buffer [50 mmol/L Tris-HCl comprising 120 mmol/L NaCl and 5 mmol/L KCl (pH=7.4)]; homogenized with a homogenizer manufactured by Teflon (trademark); and then centrifuged (50,000×g, 30 min, 4° C.). The precipitate was suspended again in the appropriate amount of SERT buffer (to give a membrane preparation), and stored at −80° C. until used. The amount of protein in the membrane preparation was assayed by Dye Reagent Concentrate (manufactured by BIO-RAD) using bovine serum albumin (manufactured by Sigma Aldrich) as a standard.
The [^3H] citalopram binding was measured according to the method disclosed in Owens M. J. et al., J. Pharm. […] The glass fiber filter was washed twice with 250 HL of the SERT buffer, placed in a plastic vial containing 4 mL of liquid scintillator (ACS-II, manufactured by Amersham) or Ecoscint A (manufactured by National Diagnostics), and the remaining radioactivity on the filter paper was assayed with a liquid scintillation counter.
Experiment [3] has as its target T1, human serotonin 2C receptor (h-5-HT2C). In words: 5-HT2C receptor agonistic action assay (FLIPR Calcium 4, h-5-HT2C/CHO cells; agonistic / inverse agonistic action). The format is cell-based. How it is done:
3-1. The Cells and Inoculation Thereof
In the experiment, human serotonin 2C receptor (h-5-HT2C) was expressed in CHO cells (h-5-HT2C/CHO). The cells were incubated with UltraCHO Lipuid (trademark) (manufactured by BioWhitakker) containing 1% FBS, 400 μg/mL Geneticin, 100 U/mL penicillin-100 μg/mL streptomycin (all manufactured by Sigma Aldrich) and 250 μg/mL Zeosin (manufactured by InvivoGen) in an incubator containing 5% CO2. On the day before using the cells, they were detached and collected using 250 μg/mL Trypsin solution (manufactured by Nacalai Tesque), then inoculated in a 96 well flat clear bottom black polystyrene TC-treated microplates (manufactured by Corning) at 40000 cells/well/60 μL in an incubator containing 5% CO2 for 16 hours to 24 hours.
3-2. 5-HT2C Receptor Agonistic Action Assay
The 5-HT2C receptor agonistic action was evaluated with FLIPR Calcium 4 Assay kit (manufactured by Molecular Devices). In specific, to the cells inoculated in the plate were added Component A of FLIPR Calcium 4 Assay kit dissolved in 100 mL of HHBP buffer (1×Hanks buffer, 20 mmol/L HEPES, both manufactured by Gibco) at an amount of 40 μL/well, and the cells were incubated in an incubator containing 5% CO2 for 1 hour. Then, the cells were set in FLIPR TETRA (trademark) (manufactured by Molecular Devices), to the cells was added the test material diluted with HHBP buffer, 2.5 mmol/L Probenecid (manufactured by Sigma) (concentration after dilution: 10 μmol/L) at an amount of 20 μL/well, and the fluorescence was measured. Then, in order to evaluate the antagonistic action of the test material, 20 μL/well of 5-HT solution (manufactured by Sigma, final concentration: 0.1 nmol/L) was further added to the cells, and the fluorescence was measured.
The 5-HT2C receptor agonistic action of each test material was calculated as a rate of fluorescence enhancement wherein 100% was defined as a value when the cells were given 10 μmol/L 5-HT. Furthermore, the 5-HT2C receptor inverse agonistic action was calculated as a rate of fluorescence decay wherein −100% was defined as a value when the cells were given 10 μmol/L SB206553 (manufactured by Sigma Aldrich). A lower value of the 5-HT2C receptor agonistic action of the test material means that the material has a higher antagonistic action. In particular, when the value of the 5-HT2C receptor agonistic action of the test material is below 0%, the material has an inverse agonistic action for 5-HT2C receptor.

SMILES strings stand for the structures.

T1 sequence (P28335 whole entry, looked up): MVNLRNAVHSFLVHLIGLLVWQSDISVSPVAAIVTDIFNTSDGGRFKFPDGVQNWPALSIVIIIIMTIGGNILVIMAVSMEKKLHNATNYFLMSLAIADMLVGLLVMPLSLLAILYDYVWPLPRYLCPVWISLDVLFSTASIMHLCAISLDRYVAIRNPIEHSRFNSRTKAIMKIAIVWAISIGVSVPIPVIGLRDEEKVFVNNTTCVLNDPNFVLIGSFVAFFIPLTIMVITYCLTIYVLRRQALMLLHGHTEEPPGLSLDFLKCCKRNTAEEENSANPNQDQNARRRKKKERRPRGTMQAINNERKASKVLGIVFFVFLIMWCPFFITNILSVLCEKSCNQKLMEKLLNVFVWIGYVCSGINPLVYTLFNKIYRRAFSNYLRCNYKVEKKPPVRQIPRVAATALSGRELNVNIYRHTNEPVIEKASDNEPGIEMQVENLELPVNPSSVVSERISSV

For the molecule `CNCc1cc(OCc2cc(Cl)ccc2F)n(CC2CCCCO2)n1` (single isomer, unassigned; (-)) [Example 474, (−)-1-{5-[(5-chloro-2-fluorobenzyl)oxy]-1-(tetrahydro-2H-pyran-2-ylmethyl)-1H-pyrazol-3-yl}-N-methylmethanamine], the Ki in experiment [1] was found to be 16 nM; in experiment [2], 11 nM. In addition, in experiment [3], the “5-HT2C receptor agonistic action” value was −111%.

For the origin of these results see patent US11312688B2, “Pyrazole compound” (Sumitomo Dainippon Pharma Co., Ltd., priority 2011, dated 2022).
